Results on 23 compounds are retold here after patent US11180462B2, “Microbiocidal oxadiazole derivatives” (SYNGENTA PARTICIPATIONS AG, priority 2015, dated 2021).

In test [1] the test system is Glomerella lagenarium (Colletotrichum lagenarium). In words: Fungicidal activity against Glomerella lagenarium (Colletotrichum lagenarium) liquid culture / cucumber / preventative (anthracnose). It counts as cell-based. The note with it: Colletotrichum orbiculare; 20 ppm in the applied formulation; liquid culture (PDB), growth inhibition measured photometrically after 3 to 4 days; compared to untreated control; read-out: disease control. A digest of the protocol: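 Photometric read-out of fungal growth after 2–7 days, expressed as percent antifungal activity versus untreated check. Cryo-stored conidia in PDB; compound at 20 ppm; dark, 24 °C, 96% RH.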

Another test concerns Phakopsora Pachyrhizi. In words: Fungicidal activity against Phakopsora pachyrhizi / soybean / leaf disc preventative (Asian soybean rust). In kind it is in vivo. The note with it: foliar, 200 ppm in the applied formulation, soybean leaf disks, compared to untreated control leaf disks, read-out: disease control. How it is done:
Leaf disks or leaf segments of various plant species are cut from plants grown in a greenhouse. The cut leaf disks or segments are placed in multiwell plates (24-well format) onto water agar. The leaf disks are sprayed with a test solution before (preventative) or after (curative) inoculation. Compounds to be tested are prepared as DMSO solutions (max. 10 mg/ml) which are diluted to the appropriate concentration with 0.025% Tween20 just before spraying. The inoculated leaf disks or segments are incubated under defined conditions (temperature, relative humidity, light, etc.) according to the respective test system. A single evaluation of disease level is carried out 3 to 14 days after inoculation, depending on the pathosystem. Percent disease control relative to the untreated check leaf disks or segments is then calculated.
Fungicidal Activity Against Phakopsora Pachyrhizi Soybean/Leaf Disc Preventative (Asian Soybean Rust)
Soybean leaf disks are placed on water agar in multiwell plates (24-well format) and sprayed with the formulated test compound diluted in water. One day after application leaf discs are inoculated by spraying a spore suspension on the lower leaf surface. After an incubation period in a climate cabinet of 24-36 hours in darkness at 20° C. and 75% rh leaf disc are kept at 20° C. with 12 h light/day and 75% rh. The activity of a compound is assessed as percent disease control compared to untreated when an appropriate level of disease damage appears in untreated check leaf disks (12 to 14 days after application).
The following compounds at 200 ppm in the applied formulation give at least 80% disease control in this test when compared to untreated control leaf disks under the same conditions, which show extensive disease development.

In test [2] the test system is Puccinia recondita f. Sp. Tritici. In words: Fungicidal activity against Puccinia recondita f. sp. tritici / wheat / leaf disc preventative (brown rust). It counts as in vivo. The note with it: foliar, 200 ppm in the applied formulation, wheat leaf segments, preventative, compared to untreated control leaf disks, read-out: disease control. A digest of the protocol: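 Preventative leaf-segment test, wheat cv. Kanzler on water agar. Spray compound at 200 ppm, inoculate with spores 1 day later; 19° C., 75% rh, 12/12 h light. Read-out: % disease control vs untreated, 7 to 9 days after application.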

With `CCON(Cc1ccc(-c2noc(C(F)(F)F)n2)cc1)C(=O)CC` [Compound 1.562, N-ethoxy-N-[[4-[5-(trifiuoromethyl)-1,2,4-oxadiazol-3-yl]phenyl]methyl]-propanamide], the inhibition of growth at 20 ppm in test [1] was no less than 80%. The pest or weed control at 200 ppm (in the test on Phakopsora Pachyrhizi; in test [2]) was no less than 80% throughout.
With `O=C(c1ccccc1Cl)N(O)Cc1ccc(-c2noc(C(F)(F)F)n2)cc1` [Compound 1.754, 2-chloro-N-hydroxy-N-[[4-[5-(trifluoromethyl)-1,2,4-oxadiazol-3-yl]phenyl]methyl]-benzamide], the inhibition of growth at 20 ppm in test [1] is no less than 80%. Moreover, the pest or weed control at 200 ppm (with Phakopsora Pachyrhizi; in test [2]) was no less than 80% each time.
With `CC(=O)N(CCO)Cc1ccc(-c2noc(C(F)(F)F)n2)cc1` [Compound 1.735, N-(2-hydroxyethyl)-N-[[4-[5-(trifluoromethyl)-1,2,4-oxadiazol-3-yl]phenyl]methyl]-acetamide], in test [1], the inhibition of growth at 20 ppm was no less than 80%. Further, the pest or weed control at 200 ppm (in the test with Phakopsora Pachyrhizi; in test [2]) was no less than 80% each time.
As for `O=C(c1ccccc1Cl)N(CCO)Cc1ccc(-c2noc(C(F)(F)F)n2)cc1` [Compound 1.709, 2-chloro-N-(2-hydroxyethyl)-N-[[4-[5-(trifluoromethyl)-1,2,4-oxadiazol-3-yl]phenyl]methyl]-benzamide], in test [1], the inhibition of growth at 20 ppm is no less than 80%. The pest or weed control at 200 ppm (in the test on Phakopsora Pachyrhizi; in test [2]) was no less than 80% each time.
As for `C#CCC(NS(=O)(=O)CC)C(=O)N(Cc1ccc(-c2noc(C(F)(F)F)n2)cc1)OC` (centres unmarked) [Compound 1.60, 2-(ethylsulfonylamino)-N-methoxy-N-[[4-[5-(trifluoromethyl)-1,2,4-oxadiazol-3-yl]phenyl]methyl]-pent-4-ynamide], the pest or weed control at 200 ppm (in the test with Phakopsora Pachyrhizi; in test [2]) was no less than 80% in each case.
For the compound `N#CCC(=O)N(CCO)Cc1ccc(-c2noc(C(F)(F)F)n2)cc1` [Compound 1.728, 2-cyano-N-(2-hydroxyethyl)-N-[[4-[5-(trifluoromethyl)-1,2,4-oxadiazol-3-yl]phenyl]methyl]-acetamide], the pest or weed control at 200 ppm (with Phakopsora Pachyrhizi; in test [2]) was no less than 80% each time.
On to `CCON(Cc1ccc(-c2noc(C(F)(F)F)n2)cc1)C(=O)CC(F)(F)F` [Compound 1.630, N-ethoxy-3,3,3-trifluoro-N-[[4-[5-(trifluoromethyl)-1,2,4-oxadiazol-3-yl]phenyl]methyl]-propanamide], for which, in test [1], the inhibition of growth at 20 ppm is no less than 80%. The pest or weed control at 200 ppm in the test on Phakopsora Pachyrhizi was no less than 80%.
For the compound `CCC(CC(=O)N(Cc1ccc(-c2noc(C(F)(F)F)n2)cc1)OC)C(F)(F)F` (centres unmarked) [Compound 1.82, N-methoxy-3-(trifluoromethyl)-N-[[4-[5-(trifluoromethyl)-1,2,4-oxadiazol-3-yl]phenyl]methyl]-pentamide], the inhibition of growth at 20 ppm in test [1] is no less than 80%. For the same compound, in the test with Phakopsora Pachyrhizi, the pest or weed control at 200 ppm is no less than 80%.
As for `CCCCON(Cc1ccc(-c2noc(C(F)(F)F)n2)cc1)C(=O)C1(C)CC1` [Compound 1.639, N-butoxy-1-methyl-N-[[4-[5-(trifluoromethyl)-1,2,4-oxadiazol-3-yl]phenyl]methyl]-cyclopropane-carboxamide], the inhibition of growth at 20 ppm in test [1] was no less than 80%. For the same compound, the pest or weed control at 200 ppm in the test on Phakopsora Pachyrhizi was no less than 80%.
Consider `CCCCON(Cc1ccc(-c2noc(C(F)(F)F)n2)cc1)C(=O)C1CCCO1` (centres unmarked) [Compound 1.644, N-butoxy-N-[[4-[5-(trifluoromethyl)-1,2,4-oxadiazol-3-yl]phenyl]methyl]-tetrahydrofuran-2-carboxamide], for which, in test [1], the inhibition of growth at 20 ppm was no less than 80%. Besides, the pest or weed control at 200 ppm with Phakopsora Pachyrhizi was no less than 80%.
For `COCCCC(=O)N(Cc1ccc(-c2noc(C(F)(F)F)n2)cc1)CC(F)(F)F` [Compound 1.700, 4-methoxy-N-(2,2,2-trifluoroethyl)-N-[[4-[5-(trifluoromethyl)-1,2,4-oxadiazol-3-yl]phenyl]methyl]-butanamide], the inhibition of growth at 20 ppm in test [1] was no less than 80%. In addition, the pest or weed control at 200 ppm with Phakopsora Pachyrhizi is no less than 80%.
For the compound `C#CCN(Cc1ccc(-c2noc(C(F)(F)F)n2)cc1)C(=O)C(C)(CC)CC` [Compound 1.195, 2-ethyl-2-methyl-N-prop-2-ynyl-N-[[4-[5-(trifluoromethyl)-1,2,4-oxadiazol-3-yl]phenyl]methyl]-butanamide], the inhibition of growth at 20 ppm in test [1] is no less than 80%. For the same compound, in the test with Phakopsora Pachyrhizi, the pest or weed control at 200 ppm was no less than 80%.
Take `C#CCN(Cc1ccc(-c2noc(C(F)(F)F)n2)cc1)C(=O)C1CC1c1ccccc1` (centres unmarked) [Compound 1.166, 2-phenyl-N-prop-2-ynyl-N-[[4-[5-(trifluoromethyl)-1,2,4-oxadiazol-3-yl]phenyl]methyl]-cyclopropane-carboxamide]: in test [1], the inhibition of growth at 20 ppm is no less than 80%. The pest or weed control at 200 ppm in the test on Phakopsora Pachyrhizi was no less than 80%.
`CCCCON(Cc1ccc(-c2noc(C(F)(F)F)n2)cc1)C(=O)C(CC)COC` (centres unmarked) [Compound 1.642, N-butoxy-2-(methoxymethyl)-N-[[4-[5-(trifluoromethyl)-1,2,4-oxadiazol-3-yl]phenyl]methyl]-butanamide]: in test [1], the inhibition of growth at 20 ppm is no less than 80%. In the test with Phakopsora Pachyrhizi, the pest or weed control at 200 ppm was no less than 80%.
On to `CCC(COC)C(=O)N(Cc1ccc(-c2noc(C(F)(F)F)n2)cc1)CC(F)(F)F` (centres unmarked) [Compound 1.699, 2-(methoxymethyl)-N-(2,2,2-trifluoroethyl)-N-[[4-[5-(trifluoromethyl)-1,2,4-oxadiazol-3-yl]phenyl]methyl]-butanamide], for which the inhibition of growth at 20 ppm in test [1] is no less than 80%. Further, in the test with Phakopsora Pachyrhizi, the pest or weed control at 200 ppm was no less than 80%.
In the case of `CCCCON(Cc1ccc(-c2noc(C(F)(F)F)n2)cc1)C(=O)C1(C)COC1` [Compound 1.641, N-butoxy-3-methyl-N-[[4-[5-(trifluoromethyl)-1,2,4-oxadiazol-3-yl]phenyl]methyl]-oxetane-3-carboxamide], the inhibition of growth at 20 ppm in test [1] was no less than 80%. Besides, in the test with Phakopsora Pachyrhizi, the pest or weed control at 200 ppm is no less than 80%.
Consider `N#CC1(C(=O)OCCN(Cc2ccc(-c3noc(C(F)(F)F)n3)cc2)C(=O)C2(C#N)CC2)CC1` [Compound 1.730, 2-[(1-cyanocyclopropane-carbonyl)-[[4-[5-(trifluoromethyl)-1,2,4-oxadiazol-3-yl]phenyl]methyl]-amino]ethyl 1-cyanocyclopropane-carboxylate], for which the inhibition of growth at 20 ppm in test [1] is no less than 80%. Besides, the pest or weed control at 200 ppm in the test with Phakopsora Pachyrhizi is no less than 80%.
In the case of `CCCN(Cc1ccc(-c2noc(C(F)(F)F)n2)cc1)C(=O)C1CC1C` (centres unmarked) [Compound 1.657, 2-methyl-N-propyl-N-[[4-[5-(trifluoromethyl)-1,2,4-oxadiazol-3-yl]phenyl]methyl]-cyclopropane-carboxamide], the inhibition of growth at 20 ppm in test [1] is no less than 80%. Besides, in the test on Phakopsora Pachyrhizi, the pest or weed control at 200 ppm is no less than 80%.
On to `CCON(Cc1ccc(-c2noc(C(F)(F)F)n2)cc1)C(=O)CC1CC1` [Compound 1.632, 2-cyclopropyl-N-ethoxy-N-[[4-[5-(trifluoromethyl)-1,2,4-oxadiazol-3-yl]phenyl]methyl]-acetamide], for which the inhibition of growth at 20 ppm in test [1] is no less than 80%. In addition, the pest or weed control at 200 ppm in the test on Phakopsora Pachyrhizi was no less than 80%.
Take `CCCCON(Cc1ccc(-c2noc(C(F)(F)F)n2)cc1)C(C)=O` [Compound 1.649, N-butoxy-N-[[4-[5-(trifluoromethyl)-1,2,4-oxadiazol-3-yl]phenyl]methyl]-acetamide]: the inhibition of growth at 20 ppm in test [1] was no less than 80%. Also, the pest or weed control at 200 ppm in the test on Phakopsora Pachyrhizi was no less than 80%.
On to `CCCCON(Cc1ccc(-c2noc(C(F)(F)F)n2)cc1)C(=O)CCOC` [Compound 1.637, N-butoxy-3-methoxy-N-[[4-[5-(trifluoromethyl)-1,2,4-oxadiazol-3-yl]phenyl]methyl]-propanamide], for which the inhibition of growth at 20 ppm in test [1] is no less than 80%. Moreover, the pest or weed control at 200 ppm in the test with Phakopsora Pachyrhizi is no less than 80%.
As to `CCON(Cc1ccc(-c2noc(C(F)(F)F)n2)cc1)C(=O)c1ccccc1Cl` [Compound 1.616, 2-chloro-N-ethoxy-N-[[4-[5-(trifluoromethyl)-1,2,4-oxadiazol-3-yl]phenyl]methyl]-benzamide], the inhibition of growth at 20 ppm in test [1] was no less than 80%. For the same compound, the pest or weed control at 200 ppm in the test on Phakopsora Pachyrhizi was no less than 80%.
For the compound `CCC(C)(CC)C(=O)N(Cc1ccc(-c2noc(C(F)(F)F)n2)cc1)OC` [Compound 1.58, 2-ethyl-N-methoxy-2-methyl-N-[[4-[5-(trifluoromethyl)-1,2,4-oxadiazol-3-yl]phenyl]methyl]-butanamide], in test [1], the inhibition of growth at 20 ppm is no less than 80%. Besides, in the test with Phakopsora Pachyrhizi, the pest or weed control at 200 ppm was no less than 80%.
